Laboratory results from US9155723B2, “Anti-CXCR4 as a sensitizer to cancer therapeutics” (THE GENERAL HOSPITAL CORPORATION, priority 2010, dated 2015).
Entries after “also recorded” stand apart in the source; their conditions may differ. Where two headings read alike, the source gives them in different places.

What was measured:
[1] = test system: CD11b+ myeloid BMDCs; assay: In vitro migration assay (Boyden chamber), CD11b+ myeloid BMDCs; format: cell-based, mouse
Description: (§1) Bone marrow cells were collected in heparin-mixed PBS. The cellular filtrate was washed and a layer containing mononuclear BM cells was separated using Histopaque-1083 (Sigma). For the migration assay, BM cells were separated by CD11b, F4/80, or Gr-1 magnetic microbeads (MACS-beads; Miltenyi Biotech) from VEGFR1TK+/+ and VEGFR1TK−/− mice as per manufacturer's protocol. These cells were incubated with recombinant proteins for migration assays
(§2) The migration of mononuclear CD11b+ BMDCs (2×10^6 cells per mL), F4/80+ BMDCs (8×10^5 cells per mL), and Gr-1+ BMDCs (8×10^5 cells per mL) was evaluated using a chemotaxis Boyden chamber (Neuroprobe). The upper and lower wells were separated by a […] pore size polyvinylpyrrolidone-free polycarbonate filter (Nucreopore; Costar). […] A 50-μl aliquot of the cell suspension was seeded in the upper wells and incubated for 3 h at 37° C. with 5% CO2. The number of cells that migrated through the membrane was counted.
To reveal the mechanism of action of VEGFR1 and CXCR4 in myeloid BMDCs, bone marrow cells were harvested from C57BL/6 and VEGFR1 TK−/− mice and purified mononuclear myeloid BMDCs using magnetic separation for CD11b+ cells.

[2] = test system: CXCL12; conditions: cited from earlier work
[3] = test system: 54A human lung tumors; conditions: AMD3100 osmotic pumps alone for 2 weeks, no irradiation; 54A tumors
From the text: (§3) 54A human lung tumors were xenografted in male athymic NCr/Sed nude (nu/nu) mice, and MCa8 mouse mammary carcinomas were implanted in female syngeneic FVB mice (both subcutaneously in the hind limb; refs. 3, 11). To detect specific BMDC populations in tumors (i.e., Tie2^+CD11b^− EPCs and Tie2^+CD11b^+ TEMs), irradiated wild-type FVB mice were irradiated with 9 Gy of whole-body irradiation (WBI) followed by restorative bone marrow transplantation (BMT) from Tie2-GFP-FVB donors to create chimeric wild-type/Tie2-GFP-BMT mice (3). MCa8 tumors were implanted in these mice 6 weeks post-BMT.
(§4) Tumor size was measured with a caliper at least thrice a week. When a tumor reached 5.5 mm in mean diameter, the mouse was randomized to a treatment group. Tumors were γ-irradiated using the same dose delivered either locally alone or locally plus a sublethal WBI dose of 6 Gy. […] Unsorted BMDCs (from femurs and tibias of one tumor- and treatment-naïve donor to two recipients) or fluorescence-activated cell-sorted Sca1^−CD11b^+ (150,000-200,000 cells) or Sca1^+CD11b^+ (25,000-50,000) BMDCs (from one donor to one recipient) were i.v. infused in mice receiving LI plus WBI. […] Therapeutic efficacy was measured as the time taken for tumors to grow to 7.5 mm in diameter (i.e., 2.5-fold increase compared with the pretreatment volume).

[4] = test system: MCa8 mouse mammary carcinomas; conditions: AMD3100 osmotic pumps alone for 2 weeks, no irradiation; MCa8 tumors
From the text: as §3, §4

[5] = test system: TRAMP-C1 prostate tumors
Description: TRAMP-C1 tumors were implanted s.c. in male C57BL/6 mice, and E0771 tumors were implanted s.c. in female C57BL/6 mice after BMT and recovery and/or after BMT and Mx-Cre recombination (n=5-6 mice) (SI Materials and Methods). […] Lung tissue was isolated from mice 2-4 wk after removal of the primary tumor.
(§5) AMD3100 was delivered by s.c. Alzet pumps containing 10 mg/mL AMD3100 in PBS at a dose of 60 μg/day, and pumps with PBS only were used as a control. The pumps were replaced every 2 wk.
Mice ranging from 8 to 22 wk old [due to prior bone marrow transplantation (BMT) and/or recombination procedures] were used. […] All experiments were performed at least twice. Metastatic tumor volume was measure by the formula: V=small diameter×long diameter×number of microscopic metastases.

[6] = test system: E0771 mammary tumors
Description: as §5
(§6) Primary tumor tissues were fixed and frozen. Sections were stained with rat antibodies against mouse CD11b, MECA 32, Gr-1 (BD Pharmingen), and F4/80 (Serotec). Cy3- or FITC-conjugated secondary antibodies were used for the detection of signals by confocal microscopy. Slides were counterstained with DAPI for nuclear staining. The number of cells was quantified by measuring the area occupied by immunostained mononuclear cells normalized by the area of DAPI-stained nuclei (i.e., unitless). Phopho-p38 MAPK level was measured by Western blotting.
(§7) Primary tumor tissues were fixed in 4% paraformaldehyde at 4° C. for 2 h, dehydrated in 30% sucrose overnight, and embedded in optimal cutting temperature (OCT) compound in frozen samples for immunofluorescence histological analyses.

[7] = test system: TRAMP-C1 prostate tumors; remark: listed apart in the source
Description: as §5, §6, §7

[8] = test system: Gr-1+ BMDCs; conditions: in vitro
Description: as §1, §2

C[S+]([O-])c1ccc(-c2nc(-c3ccncc3)c(-c3ccc(F)cc3)[nH]2)cc1 (centres unmarked) [SB203580]
migration of myeloid BMDCs ([1]; SB203580 1 μM, rVEGF or rCXCL12, irrespective of the chemotactic stimulus): significantly reduced the migration of myeloid BMDCs; also recorded: decreased migration of myeloid BMDCs

COc1cc2c(Oc3ccc4[nH]c(C)cc4c3F)ncnc2cc1OCCCN1CCCC1 [cediranib]
circulating CXCL12 ([2]; recurrent GBM, P < 0.001): therapy increases

c1cc(CN2CCCNCCNCCCNCC2)ccc1CN1CCCNCCNCCCNCC1 [AMD3100, 1,1′-[1,4-phenylene-bis(methylene)]-bis-1,4,8,11-tetraazacyclotetradecane]
tumor growth [3]: did not affect tumor growth
tumor growth [4]: did not affect tumor growth
lung metastatic burden after primary tumor resection ([5]; BMT-VEGFR1^TK−/− mice, TRAMP-C1): significantly reduced metastatic burden
growth of established tumors ([5]; intervention setting, growth from 4 mm to ~1 cm, established TRAMP-C1): less substantial growth delay
TAM infiltration ([6]; AMD3100 alone): did not affect the TAM infiltration
number of total myeloid BMDCs in tumor ([6]; AMD3100 alone): decreased the number of total myeloid BMDCs
microvascular density (MVD) ([6]; AMD3100 alone, prevention setting): decreased MVD
Gr-1+ myeloid BMDC infiltration ([6]; irrespective of VEGFR1-TK status in BMDCs): decreased Gr-1+ myeloid BMDCs; also recorded: decreases Gr-1^+ BMDC infiltration
TAM infiltration ([7]; AMD3100 alone, TRAMP-C1): did not affect the TAM infiltration
number of total myeloid BMDCs in tumor ([7]; AMD3100 alone, TRAMP-C1): not in TRAMP-C1 tumors
Gr-1+ myeloid BMDC infiltration ([7]; irrespective of VEGFR1-TK status in BMDCs, TRAMP-C1): decreased Gr-1+ myeloid BMDCs; also recorded: decreases Gr-1^+ BMDC infiltration
number of Gr-1+ BMDCs during early tumor growth ([7]; small (4-mm) tumors, preventive setting, TRAMP-C1 model, 8-wk-old mice): significantly decreased the number of Gr-1+ BMDCs; also recorded: significantly reduces Gr-1^+ myeloid BMDC infiltration
rCXCL12-induced migration of WT myeloid BMDCs ([1]; 1 μg/mL of AMD3100, rCXCL12 100 ng/mL, transwell assay): reversed
rCXCL12-induced migration of Gr-1+ BMDCs [8]: reversed

CNC(=O)c1cc(Oc2ccc(NC(=O)Nc3ccc(Cl)c(C(F)(F)F)c3)cc2)ccn1 [sorafenib]
circulating CXCL12 ([2]; advanced sarcoma, P < 0.01): therapy increases
